This passage reports Avg infected area and Observed antifungal activity results from patent US20250280827A1, “An antifungal composition comprising natamycin and at least one insecticide” (priority 2021, published 2025).

The structures appear in SMILES notation.

The assay concerns Colletotrichum spp. Nature of the assay: Antifungal effect against Colletotrichum infection on wounded skin of pepper fruits (Colby synergy). The assay is classed as in vivo. An excerpt:
wherein X and Y are the observed antifungal activities (in %) of the individual active ingredients x and y, respectively. If the observed antifungal activity (O in %) of the combination exceeds the expected antifungal activity (E in %) of the combination and the synergy factor O/E is thus >1.0, the combined application of the active ingredients leads to a synergistic antifungal effect. […]
For the treatment, 5 wounds per pepper side were done as previously described. In addition, one wound was done as negative control. Depending on the number of sides of the pepper, 3 to 4 treatments were done per paprika. Per wound 10 μl of treatment was placed on the wound. The treatments were let to dry in a down flow cabinet for about 30 minutes. After drying 5 μl spore suspension at a concentration of 10^7 spores per ml were placed on the wounds. The fungus was isolated from Colletotrichum-infected plant material and identified using techniques known to the person skilled in the art. The pepper were placed as described previously in a transparent container, with the difference that the containers were then placed in a transparent plastic zipper bag. The bags with peppers were placed at room temperature and in the dark for two days. After that the size of the lesions were measured. Assessment of the infection area was 4 days after inoculation. Experiment was performed in 5-fold.
The fungus was isolated from Colletotrichum-infected plant material and identified using techniques known to the person skilled in the art. Assessment of the infection area was performed 5 days after inoculation. Experiment was performed in 5-fold.
The active ingredient imidacloprid was formulated as described in Table 2. Imidacloprid belonging to IRAC Group 4. The fungus was isolated from Colletotrichum-infected plant material and identified using techniques known to the person skilled in the art. Assessment of the infection area was performed 5 days after inoculation. Experiment was performed in 5-fold.
The fungus was isolated from Colletotrichum-infected plant material and identified using techniques known to the person skilled in the art. Assessment of the efficacy was 5 days after inoculation. Experiment was performed in 5-fold.
The fungus was isolated from Colletotrichum-infected plant material and identified using techniques known to the person skilled in the art. Assessment of the infection area was performed 6 days after inoculation. Experiment was performed in 5-fold.
The fungus was isolated from Colletotrichum-infected plant material and identified using techniques known to the person skilled in the art. Assessment of the infection area was performed 4 days after inoculation. Experiment was performed in 5-fold.

[1] abbreviates: natamycin-insecticide 1:0 ppm, 4 days after inoculation, Table 13.
The mark [2] stands for this setting: natamycin-insecticide 1:0 ppm, 5 days after inoculation, Table 15.
[3] abbreviates: natamycin-insecticide 1:0 ppm, 5 days after inoculation, Table 16.
The mark [4] stands for this setting: natamycin-insecticide 1:0 ppm, 5 days after inoculation, Table 17.
Setting [5] is: natamycin:abamectin 1:0 ppm, 4 days after inoculation, Table 20.
Where [6] appears, read: natamycin:fipronil 1:0 ppm, 6 days after inoculation, Table 19.

On to `C[C@@H]1C/C=C/C=C/C=C/C=C/[C@H](O[C@@H]2O[C@H](C)[C@@H](O)[C@H](N)[C@@H]2O)C[C@@H]2O[C@](O)(C[C@@H](O)C[C@H]3O[C@@H]3/C=C/C(=O)O1)C[C@H](O)[C@H]2C(=O)O` [natamycin], for which the Avg infected area is, setting by setting: under setting [1], 10.6 mm2; under setting [2], 30.2 mm2; under setting [3], 30.2 mm2; under setting [4], 22.4 mm2; under setting [5], 13.5 mm2; under setting [6], 24.7 mm^2. The Observed antifungal activity is, setting by setting: under setting [1], 33.8%; under setting [2], 28.6%; under setting [3], 28.6%; under setting [4], 59.5%; under setting [5], 39.8%; under setting [6], 50.7%.
